Experiments:
[1] = Plasma pharmacokinetics in SD rats after single intragastric administration (Example 7); type: in vivo; conditions: intragastric 1 mg/kg, Mean ± SD, non-compartmental model, listed as Sulfate
Experimental: The in vivo absorption process and characteristics of the free base and four salts thereof (sulfate, hydrochloride salt, phosphate, maleate) of compound (I) in rats were studied. The pharmacokinetics of a single intragastric administration of 1 mg/kg of a compound of Formula I and four salts thereof (calculated by free base concentration in salt form) were studied in SD rats.
SD rats were given a single intragastric administration of 1 mg/kg free base of Example 1 and four salts thereof (including hydrochloride salt from Example 2, sulfate from Example 3, phosphate from Example 4 and maleate from Example 5). There were 4 male rats in each group. The concentration of the compound of Formula I in plasma was determined, and the pharmacokinetic parameters were calculated according to the concentration-time curve.

solubility in water = type: physicochemical; conditions: listed as sulfate Form A
[2] = In vivo individual difference analysis: individual plasma concentration versus time in rats (Example 8); design: species or system SD rats; conditions: intragastric 1 mg/kg, listed as Sulfate of Compound of Formula I
Experimental: Compound of Formula I and salts thereof (sulfate, hydrochloride salt, phosphate, maleate), supplied by Shanghai Jingxin Biopharmaceutical Co., Ltd. • Strain: SD rats; Gender: male; Body weight: about 250 grams; Source: shanghai Jiesijie Experimental Animal Co., Ltd Route: single intragastric administration; Capacity: measured in 10 mL/kg body weight Preparation: weighing appropriate amount of the free base or salt of the compound of Formula I, adding a small amount of 0.5% CMC-Na to grind, adding 0.5% CMC-Na to the volume. The concentration is measured as the base. 20 SD rats were divided into 5 groups with 4 rats in each group, fasted for 12 h and drank freely before administration. […] The blood was anticoagulated with 1% heparin, the plasma was separated by 8000 rpm centrifugation for 4 min and stored at -40° C. for testing. LC-MS/MS Method. Pharmacokinetic parameters after administration in rats were calculated using a non-compartmental model of DAS 2.0 software.

[3] = Hygroscopicity (DVS) experiment, 25° C./80% relative humidity; type: physicochemical
Experimental: Dynamic vapor sorption curves were collected on a DVS Intrinsic by SMS (Surface Measurement Systems).
20 mg sample of the crystal forms of the Examples and Comparative Examples are placed in the environment of 25° C./80% relative humidity for a dynamic vapor sorption (DVS) test, and the test results […] are shown in Table 5.

[4] = DVS, 25° C./80% relative humidity, listed as Example 3 sulfate

CN(C)C(=O)N[C@H]1CC[C@H](CCN2CCN(c3cccc4ccsc34)CC2)CC1 [Example 3, N′-[trans-4-[2-[7-(benzo[b]thiophene)-7-piperazinyl]ethyl]cyclohexyl]-N,N-dimethylurea]
MRT0-∞ [1]: 2.87 ± 0.283 h
Tmax [1]: 0.417 ± 0.096 h
t1/2 [1]: 2.67 ± 0.267 h
solubility in water (solubility in water): greater than 8.0 mg/ml
Plasma Concentrations of Compound of Formula I ([2]; 5 min after administration, Mean ± SD): 2.25 ± 0.476 ng/mL
Plasma Concentrations of Compound of Formula I ([2]; 5 min after administration, rat 1♂): 1.54 ng/mL
Plasma Concentrations of Compound of Formula I ([2]; 5 min after administration, rat 2♂): 2.41 ng/mL
Plasma Concentrations of Compound of Formula I ([2]; 5 min after administration, rat 3♂): 2.56 ng/mL
Plasma Concentrations of Compound of Formula I ([2]; 5 min after administration, rat 4♂): 2.48 ng/mL
Plasma Concentrations of Compound of Formula I ([2]; 0.167 h after administration, Mean ± SD): 21.7 ± 2.45 ng/mL
Plasma Concentrations of Compound of Formula I ([2]; 0.167 h after administration, rat 1♂): 24.0 ng/mL
Plasma Concentrations of Compound of Formula I ([2]; 0.167 h after administration, rat 2♂): 18.4 ng/mL
Plasma Concentrations of Compound of Formula I ([2]; 0.167 h after administration, rat 3♂): 23.0 ng/mL
Plasma Concentrations of Compound of Formula I ([2]; 0.167 h after administration, rat 4♂): 21.3 ng/mL
Plasma Concentrations of Compound of Formula I ([2]; 0.333 h after administration, Mean ± SD): 51.2 ± 2.32 ng/mL
Plasma Concentrations of Compound of Formula I ([2]; 0.333 h after administration, rat 1♂): 50.4 ng/mL
Plasma Concentrations of Compound of Formula I ([2]; 0.333 h after administration, rat 2♂): 54.4 ng/mL
Plasma Concentrations of Compound of Formula I ([2]; 0.333 h after administration, rat 3♂): 51.0 ng/mL
Plasma Concentrations of Compound of Formula I ([2]; 0.333 h after administration, rat 4♂): 48.9 ng/mL
Plasma Concentrations of Compound of Formula I ([2]; 0.5 h after administration, Mean ± SD): 49.9 ± 10.4 ng/mL
Plasma Concentrations of Compound of Formula I ([2]; 0.5 h after administration, rat 1♂): 56.0 ng/mL
Plasma Concentrations of Compound of Formula I ([2]; 0.5 h after administration, rat 2♂): 36.0 ng/mL
Plasma Concentrations of Compound of Formula I ([2]; 0.5 h after administration, rat 3♂): 48.0 ng/mL
Plasma Concentrations of Compound of Formula I ([2]; 0.5 h after administration, rat 4♂): 59.4 ng/mL
Plasma Concentrations of Compound of Formula I ([2]; 1 h after administration, Mean ± SD): 39.2 ± 6.84 ng/mL
Plasma Concentrations of Compound of Formula I ([2]; 1 h after administration, rat 1♂): 42.6 ng/mL
Plasma Concentrations of Compound of Formula I ([2]; 1 h after administration, rat 2♂): 30.0 ng/mL
Plasma Concentrations of Compound of Formula I ([2]; 1 h after administration, rat 3♂): 38.5 ng/mL
Plasma Concentrations of Compound of Formula I ([2]; 1 h after administration, rat 4♂): 45.8 ng/mL
Plasma Concentrations of Compound of Formula I ([2]; 2 h after administration, Mean ± SD): 23.2 ± 7.54 ng/mL
Plasma Concentrations of Compound of Formula I ([2]; 2 h after administration, rat 1♂): 32.7 ng/mL
Plasma Concentrations of Compound of Formula I ([2]; 2 h after administration, rat 2♂): 14.5 ng/mL
Plasma Concentrations of Compound of Formula I ([2]; 2 h after administration, rat 3♂): 24.1 ng/mL
Plasma Concentrations of Compound of Formula I ([2]; 2 h after administration, rat 4♂): 21.3 ng/mL
Plasma Concentrations of Compound of Formula I ([2]; 4 h after administration, Mean ± SD): 7.92 ± 3.01 ng/mL
Plasma Concentrations of Compound of Formula I ([2]; 4 h after administration, rat 1♂): 10.3 ng/mL
Plasma Concentrations of Compound of Formula I ([2]; 4 h after administration, rat 2♂): 4.31 ng/mL
Plasma Concentrations of Compound of Formula I ([2]; 4 h after administration, rat 3♂): 10.5 ng/mL
Plasma Concentrations of Compound of Formula I ([2]; 4 h after administration, rat 4♂): 6.57 ng/mL
Plasma Concentrations of Compound of Formula I ([2]; 6 h after administration, Mean ± SD): 2.87 ± 1.10 ng/mL
Plasma Concentrations of Compound of Formula I ([2]; 6 h after administration, rat 1♂): 3.08 ng/mL
Plasma Concentrations of Compound of Formula I ([2]; 6 h after administration, rat 2♂): 1.35 ng/mL
Plasma Concentrations of Compound of Formula I ([2]; 6 h after administration, rat 3♂): 3.99 ng/mL
Plasma Concentrations of Compound of Formula I ([2]; 6 h after administration, rat 4♂): 3.05 ng/mL
Plasma Concentrations of Compound of Formula I ([2]; 9 h after administration, Mean ± SD): 1.15 ± 0.444 ng/mL
Plasma Concentrations of Compound of Formula I ([2]; 9 h after administration, rat 1♂): 1.30 ng/mL
Plasma Concentrations of Compound of Formula I ([2]; 9 h after administration, rat 2♂): 0.643 ng/mL
Plasma Concentrations of Compound of Formula I ([2]; 9 h after administration, rat 3♂): 1.68 ng/mL
Plasma Concentrations of Compound of Formula I ([2]; 9 h after administration, rat 4♂): 0.973 ng/mL
Plasma Concentrations of Compound of Formula I ([2]; 12 h after administration, Mean ± SD): 0.606 ± 0.221 ng/mL
Plasma Concentrations of Compound of Formula I ([2]; 12 h after administration, rat 1♂): 0.718 ng/mL
Plasma Concentrations of Compound of Formula I ([2]; 12 h after administration, rat 2♂): 0.317 ng/mL
Plasma Concentrations of Compound of Formula I ([2]; 12 h after administration, rat 3♂): 0.827 ng/mL
Plasma Concentrations of Compound of Formula I ([2]; 12 h after administration, rat 4♂): 0.561 ng/mL
Plasma Concentrations of Compound of Formula I ([2]; 24 h after administration, Mean ± SD): 0.244 ± 0.161 ng/mL
Plasma Concentrations of Compound of Formula I ([2]; 24 h after administration, rat 1♂): 0.213 ng/mL
Plasma Concentrations of Compound of Formula I ([2]; 24 h after administration, rat 2♂): 0.135 ng/mL
Plasma Concentrations of Compound of Formula I ([2]; 24 h after administration, rat 3♂): 0.148 ng/mL
Plasma Concentrations of Compound of Formula I ([2]; 24 h after administration, rat 4♂): 0.479 ng/mL
Hygroscopicity [3, 4]: Slight
Vapor sorption [3, 4]: 0.23%
The crystal form changes after DVS testing or not ([3]; after DVS testing): No

Reference: patent US20210309631A1, “SALT OF CYCLOHEXANE DERIVATIVE” (priority 2018, published 2021)
